# Results published in US20250134907A1, “FUSED DIAZEPINES AS AGONISTS OF THE INSULIN-LIKE 3 (INSL3) PEPTIDE RECEPTOR RXFP2 AND METHODS OF USE THEREOF” (The United States of America,as represented by the …, priority 2022, published 2025).
# Read-outs that look alike come from different tables or passages of the source.
# Key:
# RXFP2 = biological target: T1, RXFP2 (Homo sapiens, UniProt Q8WXD0); experiment: HTRF cAMP assay in HEK-RXFP2 cells with INSL3 B dimer antagonist co-treatment; assay type: cell-based; details: antagonist 10 μM-[…], IBMX 200 μM
# T1 construct: expressed in transfected cells
# T1 sequence (Q8WXD0 whole entry): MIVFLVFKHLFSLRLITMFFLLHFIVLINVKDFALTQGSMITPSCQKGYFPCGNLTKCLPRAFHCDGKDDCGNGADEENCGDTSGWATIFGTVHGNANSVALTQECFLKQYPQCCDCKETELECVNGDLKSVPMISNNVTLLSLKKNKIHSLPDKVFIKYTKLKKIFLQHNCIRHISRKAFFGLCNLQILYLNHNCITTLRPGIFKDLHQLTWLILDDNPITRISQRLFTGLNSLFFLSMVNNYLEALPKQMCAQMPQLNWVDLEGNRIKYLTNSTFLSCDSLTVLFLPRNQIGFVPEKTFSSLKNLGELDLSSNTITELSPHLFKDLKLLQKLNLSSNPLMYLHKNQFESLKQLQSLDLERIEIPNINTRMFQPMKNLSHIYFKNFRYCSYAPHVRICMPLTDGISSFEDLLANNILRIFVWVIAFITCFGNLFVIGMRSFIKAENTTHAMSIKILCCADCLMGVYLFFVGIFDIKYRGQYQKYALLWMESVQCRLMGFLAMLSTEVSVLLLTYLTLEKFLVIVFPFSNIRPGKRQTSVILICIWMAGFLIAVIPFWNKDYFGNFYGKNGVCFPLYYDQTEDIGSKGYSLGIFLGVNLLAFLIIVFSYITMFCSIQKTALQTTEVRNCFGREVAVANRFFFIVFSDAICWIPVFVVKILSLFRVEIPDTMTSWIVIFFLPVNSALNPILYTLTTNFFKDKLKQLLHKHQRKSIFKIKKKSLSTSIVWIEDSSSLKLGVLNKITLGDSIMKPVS
# Procedure: Previous publications have characterized the INSL3/RXFP2 binding model, showing that the B-chain of INSL3 binds with high affinity to the extracellular leucine-rich repeat (LRR) domain of RXFP2. To determine if the RXFP2 agonists interact with the receptor in a similar manner, an INSL3 antagonist (INSL3 B dimer) was used to co-treat HEK-RXFP2 cells with RXFP2 agonists or INSL3 and measure induction of cAMP using the HTRF assay. […] The HTRF cAMP assay was carried out in the presence of 200 μM IBMX to amplify the cAMP signal. For this assay, cells were seeded in 96-well flat-bottom opaque plates at 7,500 cells/well in 60 μL/well of serum-free DMEM medium and allowed to attach overnight at 37° C. and 5% CO2. The next morning, cells were treated with 2 μL of INSL3 B dimer antagonist (10 μM-0.21 nM) and 2 μL of 30 nM INSL3 or 4 μL of vehicle (serum-free DMEM+IBMX). Cells were also treated with 1 μL/well of 0.28 μM compound, 2 μM forskolin, or DMSO vehicle. Cells were incubated for 1 hour at 37° C., 5% CO2, after which kit cAMP-d2 and anti-cAMP antibody were added as previously described. Plates were incubated for 1 hour at room temperature, and then the signal was read on a CLARIOstar plate reader (BMG Labtech, Germany).
# [1] = Pharmacokinetic study in female mice (plasma, liver, bone); assay type: in vivo, female C57/BL6 mice
# From the text: FIG. 24A depicts the plasma profile. FIG. 24B depicts the liver profile and FIG. 24C depicts the bone profiles. The actual concentration (ng/g) is the detected value (ng/mL) multiplied by 4. […] 40% HP-b-CD-75% PEG300. Three mice were used per time point. Results are expressed as the mean SEM.
# 2-hydroxypropyl-beta-cyclodextrin (HPBCD).
# FIG. 24A depicts the plasma profile. FIG. 24B depicts the liver profile and FIG. 24C depicts the bone profiles. The actual concentration (ng/g) is the detected value (ng/mL) multiplied by 4. […] 40% HP-b-CD-75% PEG300. Three mice were used per time point. Results are expressed as the mean±SEM.
# [2] = bone, PO 10 mg/kg, one administration
# [3] = liver, PO 10 mg/kg, one administration
# [4] = plasma, PO 10 mg/kg, one administration
smiles,measurement,setting,value
"O=C1Nc2ccc(-c3cc(C(F)(F)F)cc(C(F)(F)F)c3)cc2C(=O)N2CCN(C(=O)COc3ccc(OC(F)(F)F)cc3I)C[C@@H]12 [Example 187, (S)-8-(3,5-bis(trifluoromethyl)phenyl)-2-(2-(2-iodo-4-(trifluoromethoxy)phenoxy)acetyl)-1,3,4,12a-tetrahydrobenzo[e]pyrazino[1,2-a][1,4]diazepine-6,12 (2H, 11H)-dione]",effect of INSL3 B dimer antagonist on cAMP response induced by the compound,RXFP2,no effect
same,Maximum serum concentration,"[1]; Table 10, IV 3 mg/kg",3.25 µg/mL
same,AUCInf,"[1]; bone, IV 3 mg/kg",3687 ng·h/g
same,AUClast,"[1]; bone, IV 3 mg/kg",3650 ng·h/g
same,AUCInf,[1]; [2],2190 ng·h/g
same,AUClast,[1]; [2],1897 ng·h/g
same,AUCInf,"[1]; bone, PO (QD*3) 10 mg/kg",2573 ng·h/g
same,AUClast,"[1]; bone, PO (QD*3) 10 mg/kg",2539 ng·h/g
same,Cmax,"[1]; female, C57/BL6, mouse, bone, iv, 3 mg/kg, IV 3 mg/kg",1070 ng/g
same,Cmax,"[1]; female, C57/BL6, mouse, bone, po, 10 mg/kg, PO 10 mg/kg, one administration",174 ng/g
same,Cmax,"[1]; female, C57/BL6, mouse, bone, po, 10 mg/kg, PO (QD*3) 10 mg/kg",298 ng/g
same,Kp,"[1]; female, C57/BL6, mouse, bone/plasma, iv, 3 mg/kg, IV 3 mg/kg, read-out: AUClast Ratio (Bone/Plasma)",1.14
same,Kp,"[1]; female, C57/BL6, mouse, bone/plasma, iv, 3 mg/kg, IV 3 mg/kg, read-out: Cmax Ratio (Bone/Plasma)",0.419
same,Kp,"[1]; female, C57/BL6, mouse, bone/plasma, po, 10 mg/kg, PO 10 mg/kg, one administration, read-out: AUClast Ratio (Bone/Plasma)",0.725
same,Kp,"[1]; female, C57/BL6, mouse, bone/plasma, po, 10 mg/kg, PO 10 mg/kg, one administration, read-out: Cmax Ratio (Bone/Plasma)",0.475
same,Kp,"[1]; female, C57/BL6, mouse, bone/plasma, po, 10 mg/kg, PO (QD*3) 10 mg/kg, read-out: AUClast Ratio (Bone/Plasma)",0.779
same,Kp,"[1]; female, C57/BL6, mouse, bone/plasma, po, 10 mg/kg, PO (QD*3) 10 mg/kg, read-out: Cmax Ratio (Bone/Plasma)",0.766
same,Cmax,"[1]; female, C57/BL6, mouse, liver, iv, 3 mg/kg, IV 3 mg/kg",28000 ng/g
same,Cmax,"[1]; female, C57/BL6, mouse, liver, po, 10 mg/kg, PO 10 mg/kg, one administration",3210 ng/g
same,Cmax,"[1]; female, C57/BL6, mouse, liver, po, 10 mg/kg, PO (QD*3) 10 mg/kg",3570 ng/g
same,Kp,"[1]; female, C57/BL6, mouse, liver/plasma, iv, 3 mg/kg, IV 3 mg/kg, read-out: AUClast Ratio (Liver/Plasma)",8.3
same,Kp,"[1]; female, C57/BL6, mouse, liver/plasma, iv, 3 mg/kg, IV 3 mg/kg, read-out: Cmax Ratio (Liver/Plasma)",10.9
same,Kp,"[1]; female, C57/BL6, mouse, liver/plasma, po, 10 mg/kg, PO 10 mg/kg, one administration, read-out: AUClast Ratio (Liver/Plasma)",9.23
same,Kp,"[1]; female, C57/BL6, mouse, liver/plasma, po, 10 mg/kg, PO 10 mg/kg, one administration, read-out: Cmax Ratio (Liver/Plasma)",8.78
same,Kp,"[1]; female, C57/BL6, mouse, liver/plasma, po, 10 mg/kg, PO (QD*3) 10 mg/kg, read-out: AUClast Ratio (Liver/Plasma)",7.64
same,Kp,"[1]; female, C57/BL6, mouse, liver/plasma, po, 10 mg/kg, PO (QD*3) 10 mg/kg, read-out: Cmax Ratio (Liver/Plasma)",9.18
same,AUC(0-inf),"[1]; female, C57/BL6, mouse, plasma, iv, 3 mg/kg, Table 10, IV 3 mg/kg, read-out: Area under the curve-AUCinf",3200 ng·h/mL
same,AUC(0-t),"[1]; female, C57/BL6, mouse, plasma, iv, 3 mg/kg, Table 10, IV 3 mg/kg, read-out: Area under the curve-AUClast",3190 ng·h/mL
same,C0,"[1]; female, C57/BL6, mouse, plasma, iv, 3 mg/kg, Table 10, IV 3 mg/kg, read-out: Concentration-C0",3590 ng/mL
same,half-life,"[1]; female, C57/BL6, mouse, plasma, iv, 3 mg/kg, Table 10, IV 3 mg/kg, read-out: Half life-t1/2 (converted)",6.56 h
same,AUC(0-inf),"[1]; female, C57/BL6, mouse, plasma, iv, 3 mg/kg, plasma, IV 3 mg/kg, read-out: AUCInf",3200 ng·h/mL
same,AUC(0-t),"[1]; female, C57/BL6, mouse, plasma, iv, 3 mg/kg, plasma, IV 3 mg/kg, read-out: AUClast",3190 ng·h/mL
same,C0,"[1]; female, C57/BL6, mouse, plasma, iv, 3 mg/kg, plasma, IV 3 mg/kg, read-out: C0",3590 ng/mL
same,half-life,"[1]; female, C57/BL6, mouse, plasma, iv, 3 mg/kg, plasma, IV 3 mg/kg, read-out: t1/2 (converted)",6.56 h
same,AUC(0-inf),"[1]; female, C57/BL6, mouse, plasma, po, 10 mg/kg, Table 10, POA single 10 mg/kg, read-out: Area under the curve-AUCinf",2650 ng·h/mL
same,AUC(0-t),"[1]; female, C57/BL6, mouse, plasma, po, 10 mg/kg, Table 10, POA single 10 mg/kg, read-out: Area under the curve-AUClast",2620 ng·h/mL
same,half-life,"[1]; female, C57/BL6, mouse, plasma, po, 10 mg/kg, Table 10, POA single 10 mg/kg, read-out: Half life-t1/2 (converted)",3.89 h
same,AUC(0-inf),"[1]; female, C57/BL6, mouse, plasma, po, 10 mg/kg, Table 10, POB QD × 3, 10 mg/kg, read-out: Area under the curve-AUCinf",3270 ng·h/mL
same,AUC(0-t),"[1]; female, C57/BL6, mouse, plasma, po, 10 mg/kg, Table 10, POB QD × 3, 10 mg/kg, read-out: Area under the curve-AUClast",3260 ng·h/mL
same,half-life,"[1]; female, C57/BL6, mouse, plasma, po, 10 mg/kg, Table 10, POB QD × 3, 10 mg/kg, read-out: Half life-t1/2 (converted)",5.88 h
same,AUC(0-inf),"[1]; female, C57/BL6, mouse, plasma, po, 10 mg/kg, plasma, PO 10 mg/kg, one administration, read-out: AUCInf",2650 ng·h/mL
same,AUC(0-t),"[1]; female, C57/BL6, mouse, plasma, po, 10 mg/kg, plasma, PO 10 mg/kg, one administration, read-out: AUClast",2620 ng·h/mL
same,C0,"[1]; female, C57/BL6, mouse, plasma, po, 10 mg/kg, plasma, PO 10 mg/kg, one administration, read-out: C0",366 ng/mL
same,half-life,"[1]; female, C57/BL6, mouse, plasma, po, 10 mg/kg, plasma, PO 10 mg/kg, one administration, read-out: t1/2 (converted)",3.89 h
same,AUC(0-inf),"[1]; female, C57/BL6, mouse, plasma, po, 10 mg/kg, plasma, PO (QD*3) 10 mg/kg, read-out: AUCInf",3270 ng·h/mL
same,AUC(0-t),"[1]; female, C57/BL6, mouse, plasma, po, 10 mg/kg, plasma, PO (QD*3) 10 mg/kg, read-out: AUClast",3260 ng·h/mL
same,C0,"[1]; female, C57/BL6, mouse, plasma, po, 10 mg/kg, plasma, PO (QD*3) 10 mg/kg, read-out: C0",389 ng/mL
same,half-life,"[1]; female, C57/BL6, mouse, plasma, po, 10 mg/kg, plasma, PO (QD*3) 10 mg/kg, read-out: t1/2 (converted)",5.88 h
same,bioavailability,"[1]; female, C57/BL6, mouse, plasma, po, Table 10, POA single 10 mg/kg, read-out: Bioavailability-F",24.8%
same,MRT last,"[1]; female, C57/BL6, mouse, plasma, Table 10, IV 3 mg/kg, read-out: Mean residence time-MRTlast",3.47 h
same,clearance,"[1]; female, C57/BL6, mouse, plasma, Table 10, IV 3 mg/kg, read-out: Total clearance after IV administration-CLobs",15.6 mL/min/kg
same,Vd,"[1]; female, C57/BL6, mouse, plasma, Table 10, IV 3 mg/kg, read-out: Volume of distribution in steady state-VSSobs",3.38 L/kg
same,Tmax,"[1]; female, C57/BL6, mouse, bone, IV 3 mg/kg",0.083 h
same,Tmax,"[1]; female, C57/BL6, mouse, bone, PO 10 mg/kg, one administration",3 h
same,Tmax,"[1]; female, C57/BL6, mouse, liver, IV 3 mg/kg",0.083 h
same,Tmax,"[1]; female, C57/BL6, mouse, liver, PO 10 mg/kg, one administration",1 h
same,MRT,"[1]; female, C57/BL6, mouse, plasma, IV 3 mg/kg",3.47 h
same,Tmax,"[1]; female, C57/BL6, mouse, plasma, PO 10 mg/kg, one administration",1 h
same,AUCInf,"[1]; liver, IV 3 mg/kg",26524 ng·h/g
same,AUClast,"[1]; liver, IV 3 mg/kg",26492 ng·h/g
same,AUCInf,[1]; [3],24170 ng·h/g
same,AUClast,[1]; [3],24146 ng·h/g
same,AUCInf,"[1]; liver, PO (QD*3) 10 mg/kg",24965 ng·h/g
same,AUClast,"[1]; liver, PO (QD*3) 10 mg/kg",24927 ng·h/g
same,AUC_%Extrap,"[1]; plasma, IV 3 mg/kg",0.258%
same,Cl_obs,"[1]; plasma, IV 3 mg/kg",15.6 mL/min/kg
same,Vss_obs,"[1]; plasma, IV 3 mg/kg",3.38 L/kg
same,AUC_%Extrap,[1]; [4],1.20%
same,F,[1]; [4],24.8%
same,AUC_%Extrap,"[1]; plasma, PO (QD*3) 10 mg/kg",0.265%
